# Laboratory results published in US10870634B2, “Histone demethylase inhibitors” (CELGENE QUANTICEL RESEARCH, INC., priority 2016, dated 2020).
# Molecular target: T1, FBXL10 (Homo sapiens, UniProt Q8NHM5)
# T1 construct: purchased BPS Bioscience 50120
# T1 sequence (Q8NHM5 1-650): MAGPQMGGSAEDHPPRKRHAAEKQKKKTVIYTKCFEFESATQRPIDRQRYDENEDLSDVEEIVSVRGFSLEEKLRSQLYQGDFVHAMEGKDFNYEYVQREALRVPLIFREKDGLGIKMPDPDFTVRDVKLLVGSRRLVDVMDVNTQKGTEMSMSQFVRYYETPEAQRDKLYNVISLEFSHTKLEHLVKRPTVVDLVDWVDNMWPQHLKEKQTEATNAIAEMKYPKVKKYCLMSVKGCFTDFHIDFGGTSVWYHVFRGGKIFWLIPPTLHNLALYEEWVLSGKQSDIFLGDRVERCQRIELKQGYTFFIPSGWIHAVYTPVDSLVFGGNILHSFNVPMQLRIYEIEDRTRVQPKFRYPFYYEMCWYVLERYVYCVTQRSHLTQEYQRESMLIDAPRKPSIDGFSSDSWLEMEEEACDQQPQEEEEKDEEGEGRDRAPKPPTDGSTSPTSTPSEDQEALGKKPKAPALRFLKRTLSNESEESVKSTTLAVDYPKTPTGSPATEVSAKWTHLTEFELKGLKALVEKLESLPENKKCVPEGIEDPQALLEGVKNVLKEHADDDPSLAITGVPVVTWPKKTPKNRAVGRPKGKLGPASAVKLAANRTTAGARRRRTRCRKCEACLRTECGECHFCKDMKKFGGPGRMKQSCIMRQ
# Experiment: FBXL10 in vitro enzyme inhibition assay (AlphaScreen)
# Format: biochemical
# Conditions: 0.3 nM FBXL10, 30 nM H3K36me2-biotin peptide, 0.2 μM alpha-ketoglutaric acid
# Text: This assay determines the ability of a test compound to inhibit FBXL11, FRXL10, and PHF8 demethylase activity. Baculovirus-expressed FBXL11 (GenBank Accession # NM_012308, AA1-1162) was purchased from BPS Bioscience (Cat #50102). Baculovirus-expressed FBXL10 (GenBank Accession # NM_032590, AA 1-650) was purchased from BPS Bioscience (Cat #50120), Baculovirus-expressed PHF8 (GenBank Accession NP_055922.1) was purchased from Active Motif (Cat #31435).
# The ability of test compounds to inhibit the activity of FBXM10 was determined in 384-well plate format under the following reaction conditions: 0.3 nM FBXL10, 30 nM H3K36me2-biotin labeled peptide (Anaspec cat #64442), 0.2 μM alpha-ketoglutaric acid in assay buffer of 50 mM HEPES, pH 7.3, 0.005% Brij35, 0.5 mM TCEP, 0.2 mg/ml BSA, 50 μM sodium L-ascorbate, 5 μM ammonium ironll sulfate. Reaction product was determined quantitatively by AlphaScreen detection after the addition of detection reagents anti-H3K36me1 antibody, AlphaScreen® Streptavidin-coated Donor beads, and AlphaScreen® Protein A Acceptor beads in 50 mM HEPES, pH 7.3, 10 mM NaCl, 0.005% Brij35, 5 mM EDTA, 2 mg/ml BSA to a final 10 μg/ml beads.
# The assay reaction was initiated by the following: 3 μl of the mixture of 90 nM H3K36me2-biotin labeled peptide and 0.6 μM alpha-ketoglutaric acid with 3 μl of 11-point serial diluted inhibitor in 3% DMSO were added to each well of 384-well Proxiplate (Perkin Elmer), followed by e addition of 3 μl of 0.9 nM FBXL10 to initiate the reaction. The reaction mixture was incubated at room temp for 1 hr. and terminated by the addition of 3 μl of appropriate dilution of anti-H3K36me1 antibody in 50 mM HEPES, pH 7.3, 10 mM NaCl, 0.005% Brij35, 5 mM EDTA, and 2 mg/ml BSA. […] Plates were read by EnVision Multilabel Reader in AlphaScreen mode after minimum 2 hr incubation at room temp. […]
# The ability to inhibit demethylase activity was quantified and the respective IC50 value was determined for substituted triazolylpyridine derivative compounds. […]
row,IC50 [nM],Compound
1,100 to 1000,"Fc1cnccc1-c1nn[nH]c1C(F)(F)F [Example 1, 3-fluoro-4-[5-(trifluoromethyl)-1H-1,2,3-triazol-4-yl]pyridine]"
2,1000 to 10000,"Fc1ccc(Cl)cc1Nc1cnccc1-c1nn[nH]c1C(F)(F)F [Example 2, N-(5-chloro-2-fluorophenyl)-4-[5-(trifluoromethyl)-1H-1,2,3-triazol-4-yl]pyridin-3-amine]"
3,1000 to 10000,"FC(F)(F)c1[nH]nnc1-c1ccncc1NCC1CCCc2ccccc21 (stereo not drawn) [Example 3, N-[(1,2,3,4-tetrahydronaphthalen-1-yl)methyl]-4-[5-(trifluoromethyl)-1H-1,2,3-triazol-4-yl]pyridine-3-amine]"
